Source: patent US11498899B2, “Nitrone herbicides” (FMC Corporation, priority 2016, dated 2022)

What was measured:
[1] = tested on: barnyardgrass (Echinochloa crus-galli); test: Test A preemergence, visual injury rating 0-100 (0 no effect, 100 complete control); format: in vivo; settings: for Barnyardgrass plant response rating (0 to 100 scale): 125 g ai/ha; for Barnyardgrass plant response rating: 500 g ai/ha, 0 to 100 scale
[2] = tested on: barnyardgrass (Echinochloa crus-galli); test: Test B flooded paddy test, visual rating 0-100; settings: Flood, 250 g ai/ha, applied to paddy water, rated after 13 to 15 days
[3] = tested on: ducksalad (Heteranthera limosa); test: Test B flooded paddy test, visual rating 0-100; settings: Flood, 250 g ai/ha, applied to paddy water, rated after 13 to 15 days
rice (Oryza sativa) = test: Test B flooded paddy test, visual rating 0-100 (0 no effect, 100 complete control); settings: Flood, 250 g ai/ha, applied to paddy water, rated after 13 to 15 days
[4] = tested on: barnyardgrass (Echinochloa crus-galli); test: Test A postemergence, visual injury rating 0-100; format: in vivo; settings: 0 to 100 scale
corn (Zea mays) = test: Test A postemergence, visual injury rating 0-100; format: in vivo; settings: 0 to 100 scale
[5] = tested on: foxtail, green (green foxtail, Setaria viridis); test: Test A postemergence, visual injury rating 0-100; format: in vivo; settings: 0 to 100 scale
kochia (Kochia scoparia) [6] = test: Test A postemergence, visual injury rating 0-100; format: in vivo; settings: 0 to 100 scale
[7] = tested on: ragweed (common ragweed, Ambrosia elatior); test: Test A postemergence, visual injury rating 0-100; format: in vivo; settings: 0 to 100 scale
[8] = tested on: galium (catchweed bedstraw, Galium aparine); test: Test A postemergence, visual injury rating 0-100; format: in vivo; settings: 0 to 100 scale
[9] = tested on: wheat (Triticum aestivum); test: Test A postemergence, visual injury rating 0-100; format: in vivo; settings: 0 to 100 scale
[10] = tested on: ryegrass, Italian (Italian ryegrass, Lolium multiflorum); test: Test A postemergence, visual injury rating 0-100; format: in vivo; settings: 0 to 100 scale
[11] = tested on: pigweed (Amaranthus retroflexus); test: Test A postemergence, visual injury rating 0-100; format: in vivo; settings: 0 to 100 scale
[12] = tested on: blackgrass (Alopecurus myosuroides); test: Test A postemergence, visual injury rating 0-100; format: in vivo; settings: 0 to 100 scale
[13] = tested on: foxtail, green (green foxtail, Setaria viridis); test: Test A preemergence, visual injury rating 0-100; format: in vivo; settings: for Foxtail, Green plant response rating: 0 to 100 scale
kochia (Kochia scoparia) [14] = test: Test A preemergence, visual injury rating 0-100; format: in vivo; settings: for Kochia plant response rating: 0 to 100 scale
[15] = tested on: ragweed (common ragweed, Ambrosia elatior); test: Test A preemergence, visual injury rating 0-100; format: in vivo; settings: for Ragweed plant response rating: 0 to 100 scale
[16] = tested on: ryegrass, Italian (Italian ryegrass, Lolium multiflorum); test: Test A preemergence, visual injury rating 0-100; format: in vivo; settings: for Ryegrass, Italian plant response rating: 0 to 100 scale
[17] = tested on: pigweed (Amaranthus retroflexus); test: Test A preemergence, visual injury rating 0-100; format: in vivo; settings: for Pigweed plant response rating: 0 to 100 scale

CC1=[N+]([O-])C(C(=O)Nc2cccc(C#N)c2F)C(c2ccc(C(F)(F)F)cc2)C1 (racemic) [Compound 28]
0: Ducksalad plant response rating (0 to 100 scale) [3] | Rice plant response rating (0 to 100 scale) (rice (Oryza sativa)) | Corn plant response rating (corn (Zea mays); 125 g ai/ha) | Corn plant response rating (corn (Zea mays); 500 g ai/ha) | Kochia plant response rating (kochia (Kochia scoparia) [6]; 125 g ai/ha) | Ragweed plant response rating ([7]; 125 g ai/ha) | Wheat plant response rating ([9]; 125 g ai/ha) | Wheat plant response rating ([9]; 500 g ai/ha) | Ryegrass, Italian plant response rating ([10]; 125 g ai/ha) | Pigweed plant response rating ([11]; 125 g ai/ha) | Blackgrass plant response rating ([12]; 125 g ai/ha) | Kochia plant response rating (0 to 100 scale) (kochia (Kochia scoparia) [14]; 125 g ai/ha)
20: Barnyardgrass plant response rating ([4]; 125 g ai/ha) | Kochia plant response rating (kochia (Kochia scoparia) [6]; 500 g ai/ha) | Ryegrass, Italian plant response rating ([10]; 500 g ai/ha) | Ryegrass, Italian plant response rating (0 to 100 scale) ([16]; 125 g ai/ha) | Ryegrass, Italian plant response rating ([16]; 500 g ai/ha)
40: Blackgrass plant response rating ([12]; 500 g ai/ha)
70: Ragweed plant response rating ([7]; 500 g ai/ha) | Galium plant response rating ([8]; 125 g ai/ha) | Galium plant response rating ([8]; 500 g ai/ha) | Pigweed plant response rating ([11]; 500 g ai/ha) | Kochia plant response rating (kochia (Kochia scoparia) [14]; 500 g ai/ha)
30: Barnyardgrass plant response rating (0 to 100 scale) [2] | Foxtail, Green plant response rating ([5]; 125 g ai/ha)
90: Barnyardgrass plant response rating ([4]; 500 g ai/ha) | Foxtail, Green plant response rating ([5]; 500 g ai/ha) | Foxtail, Green plant response rating (0 to 100 scale) ([13]; 125 g ai/ha) | Pigweed plant response rating (0 to 100 scale) ([17]; 125 g ai/ha)
100: Barnyardgrass plant response rating [1] | Foxtail, Green plant response rating ([13]; 500 g ai/ha) | Ragweed plant response rating ([15]; 500 g ai/ha) | Pigweed plant response rating ([17]; 500 g ai/ha)
80: Barnyardgrass plant response rating (0 to 100 scale) [1] | Ragweed plant response rating (0 to 100 scale) ([15]; 125 g ai/ha)

CSc1ccccc1NC(=O)C1C(c2ccc(C(F)(F)F)cc2)CC(C)=[N+]1[O-] (racemic) [Compound 29]
80: Barnyardgrass plant response rating [1]
0: Barnyardgrass plant response rating (0 to 100 scale) [1] | Barnyardgrass plant response rating (0 to 100 scale) [2] | Ducksalad plant response rating (0 to 100 scale) [3] | Rice plant response rating (0 to 100 scale) (rice (Oryza sativa)) | Corn plant response rating (corn (Zea mays); 125 g ai/ha) | Corn plant response rating (corn (Zea mays); 500 g ai/ha) | Kochia plant response rating (kochia (Kochia scoparia) [6]; 125 g ai/ha) | Kochia plant response rating (kochia (Kochia scoparia) [6]; 500 g ai/ha) | Ragweed plant response rating ([7]; 125 g ai/ha) | Wheat plant response rating ([9]; 125 g ai/ha) | Wheat plant response rating ([9]; 500 g ai/ha) | Ryegrass, Italian plant response rating ([10]; 125 g ai/ha) | Ryegrass, Italian plant response rating ([10]; 500 g ai/ha) | Kochia plant response rating (0 to 100 scale) (kochia (Kochia scoparia) [14]; 125 g ai/ha) | Ryegrass, Italian plant response rating (0 to 100 scale) ([16]; 125 g ai/ha)
20: Foxtail, Green plant response rating ([5]; 125 g ai/ha) | Blackgrass plant response rating ([12]; 125 g ai/ha) | Foxtail, Green plant response rating (0 to 100 scale) ([13]; 125 g ai/ha) | Kochia plant response rating (kochia (Kochia scoparia) [14]; 500 g ai/ha) | Ragweed plant response rating (0 to 100 scale) ([15]; 125 g ai/ha) | Ryegrass, Italian plant response rating ([16]; 500 g ai/ha)
90: Pigweed plant response rating ([17]; 500 g ai/ha)
100: Foxtail, Green plant response rating ([13]; 500 g ai/ha) | Ragweed plant response rating ([15]; 500 g ai/ha)
30: Barnyardgrass plant response rating ([4]; 500 g ai/ha) | Pigweed plant response rating ([11]; 500 g ai/ha) | Blackgrass plant response rating ([12]; 500 g ai/ha)
10: Barnyardgrass plant response rating ([4]; 125 g ai/ha) | Pigweed plant response rating ([11]; 125 g ai/ha) | Pigweed plant response rating (0 to 100 scale) ([17]; 125 g ai/ha)
50: Foxtail, Green plant response rating ([5]; 500 g ai/ha)
40: Galium plant response rating ([8]; 125 g ai/ha)
60: Ragweed plant response rating ([7]; 500 g ai/ha) | Galium plant response rating ([8]; 500 g ai/ha)

CC1=[N+]([O-])C(C(=O)Nc2ccccc2C#N)C(c2ccc(C(F)(F)F)cc2)C1 (racemic) [Compound 32]
20: Barnyardgrass plant response rating ([4]; 125 g ai/ha) | Foxtail, Green plant response rating ([5]; 125 g ai/ha) | Kochia plant response rating (kochia (Kochia scoparia) [6]; 500 g ai/ha) | Ragweed plant response rating ([7]; 500 g ai/ha) | Pigweed plant response rating ([11]; 500 g ai/ha) | Blackgrass plant response rating ([12]; 500 g ai/ha)
70: Galium plant response rating ([8]; 125 g ai/ha) | Kochia plant response rating (0 to 100 scale) (kochia (Kochia scoparia) [14]; 500 g ai/ha) | Ragweed plant response rating (0 to 100 scale) ([15]; 125 g ai/ha)
50: Corn plant response rating (corn (Zea mays); 500 g ai/ha) | Foxtail, Green plant response rating ([5]; 500 g ai/ha)
0: Barnyardgrass plant response rating (0 to 100 scale) [1] | Barnyardgrass plant response rating (0 to 100 scale) [2] | Ducksalad plant response rating (0 to 100 scale) [3] | Rice plant response rating (0 to 100 scale) (rice (Oryza sativa)) | Kochia plant response rating (kochia (Kochia scoparia) [6]; 125 g ai/ha) | Ragweed plant response rating ([7]; 125 g ai/ha) | Wheat plant response rating ([9]; 125 g ai/ha) | Wheat plant response rating ([9]; 500 g ai/ha) | Ryegrass, Italian plant response rating ([10]; 125 g ai/ha) | Ryegrass, Italian plant response rating ([10]; 500 g ai/ha) | Pigweed plant response rating ([11]; 125 g ai/ha) | Blackgrass plant response rating ([12]; 125 g ai/ha) | Kochia plant response rating (0 to 100 scale) (kochia (Kochia scoparia) [14]; 125 g ai/ha) | Pigweed plant response rating (0 to 100 scale) ([17]; 125 g ai/ha)
100: Barnyardgrass plant response rating [1] | Foxtail, Green plant response rating (0 to 100 scale) ([13]; 500 g ai/ha) | Ragweed plant response rating (0 to 100 scale) ([15]; 500 g ai/ha)
80: Galium plant response rating ([8]; 500 g ai/ha) | Pigweed plant response rating (0 to 100 scale) ([17]; 500 g ai/ha)
40: Barnyardgrass plant response rating ([4]; 500 g ai/ha)
10: Corn plant response rating (corn (Zea mays); 125 g ai/ha) | Foxtail, Green plant response rating (0 to 100 scale) ([13]; 125 g ai/ha) | Ryegrass, Italian plant response rating (0 to 100 scale) ([16]; 125 g ai/ha) | Ryegrass, Italian plant response rating (0 to 100 scale) ([16]; 500 g ai/ha)

CC1=[N+]([O-])C(C(=O)Nc2ccccc2C(F)(F)F)C(c2ccc(C(F)(F)F)cc2)C1 (racemic) [Compound 33]
50: Foxtail, Green plant response rating (0 to 100 scale) ([13]; 125 g ai/ha) | Pigweed plant response rating (0 to 100 scale) ([17]; 500 g ai/ha)
100: Foxtail, Green plant response rating (0 to 100 scale) ([13]; 500 g ai/ha)
70: Foxtail, Green plant response rating ([5]; 500 g ai/ha) | Galium plant response rating ([8]; 125 g ai/ha) | Galium plant response rating ([8]; 500 g ai/ha) | Kochia plant response rating (0 to 100 scale) (kochia (Kochia scoparia) [14]; 500 g ai/ha) | Ragweed plant response rating (0 to 100 scale) ([15]; 125 g ai/ha)
30: Corn plant response rating (corn (Zea mays); 500 g ai/ha)
10: Corn plant response rating (corn (Zea mays); 125 g ai/ha)
20: Barnyardgrass plant response rating (0 to 100 scale) [2] | Pigweed plant response rating ([11]; 500 g ai/ha) | Ryegrass, Italian plant response rating (0 to 100 scale) ([16]; 500 g ai/ha)
80: Ragweed plant response rating (0 to 100 scale) ([15]; 500 g ai/ha)
40: Barnyardgrass plant response rating ([4]; 500 g ai/ha) | Ragweed plant response rating ([7]; 500 g ai/ha)
0: Ducksalad plant response rating (0 to 100 scale) [3] | Rice plant response rating (0 to 100 scale) (rice (Oryza sativa)) | Barnyardgrass plant response rating ([4]; 125 g ai/ha) | Foxtail, Green plant response rating ([5]; 125 g ai/ha) | Kochia plant response rating (kochia (Kochia scoparia) [6]; 125 g ai/ha) | Kochia plant response rating (kochia (Kochia scoparia) [6]; 500 g ai/ha) | Ragweed plant response rating ([7]; 125 g ai/ha) | Wheat plant response rating ([9]; 125 g ai/ha) | Wheat plant response rating ([9]; 500 g ai/ha) | Ryegrass, Italian plant response rating ([10]; 125 g ai/ha) | Ryegrass, Italian plant response rating ([10]; 500 g ai/ha) | Pigweed plant response rating ([11]; 125 g ai/ha) | Blackgrass plant response rating ([12]; 125 g ai/ha) | Blackgrass plant response rating ([12]; 500 g ai/ha) | Kochia plant response rating (0 to 100 scale) (kochia (Kochia scoparia) [14]; 125 g ai/ha) | Ryegrass, Italian plant response rating (0 to 100 scale) ([16]; 125 g ai/ha) | Pigweed plant response rating (0 to 100 scale) ([17]; 125 g ai/ha)
90: Barnyardgrass plant response rating (0 to 100 scale) [1] | Barnyardgrass plant response rating [1]
